Common to all, as to experiment: Gi protein activation catalyzed by BLT2 mutant
Common to all, as to format: biochemical

One assay addresses T1, BLT2 H177^ECL2A (Homo sapiens, UniProt Q9NPC1, H177A).
T1 construct: made in house
T1 sequence (Q9NPC1 1-358 H177A): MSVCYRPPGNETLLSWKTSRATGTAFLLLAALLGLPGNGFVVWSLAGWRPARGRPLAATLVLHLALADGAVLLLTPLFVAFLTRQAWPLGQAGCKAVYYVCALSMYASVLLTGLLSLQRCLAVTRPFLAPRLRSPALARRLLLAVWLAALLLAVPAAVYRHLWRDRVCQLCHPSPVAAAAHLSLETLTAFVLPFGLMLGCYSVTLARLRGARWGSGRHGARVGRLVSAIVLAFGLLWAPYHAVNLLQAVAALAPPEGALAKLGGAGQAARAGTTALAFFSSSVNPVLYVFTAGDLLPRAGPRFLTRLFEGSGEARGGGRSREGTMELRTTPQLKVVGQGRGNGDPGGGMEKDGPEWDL
The method, then:
(§1) All mutations were introduced in the wild-type BLT2 receptor by PCR-mediated mutagenesis using the QuickChange multisite-directed mutagenesis kit (Stratagene) and the wild-type BLT2 construct as a template. Mutations were confirmed by nucleotide sequencing. […] Gαi2 and Gβ1γ2 were prepared as previously described. […] The data were normalized to the fluorescence maximum obtained in the presence of saturating concentrations in 12–HHT (10 μM).

In another assay the target is T2, BLT2 P175^ECL2A (Homo sapiens, UniProt Q9NPC1, P175A).
T2 construct: made in house
T2 sequence (Q9NPC1 1-358 P175A): T1 sequence (Q9NPC1 1-358 H177A) with P175A, A177H
The protocol:
as §1

A further assay deals with T3, BLT2 Q267^7.32A (Homo sapiens, UniProt Q9NPC1, Q267A).
T3 construct: made in house
T3 sequence (Q9NPC1 1-358 Q267A): T1 sequence (Q9NPC1 1-358 H177A) with A177H, Q267A
The protocol: as §1

The next assay deals with T4, BLT2 R160^4.64A (Homo sapiens, UniProt Q9NPC1, R160A).
T4 construct: made in house
T4 sequence (Q9NPC1 1-358 R160A): T1 sequence (Q9NPC1 1-358 H177A) with R160A, A177H
The protocol: as §1

A further assay addresses T5, BLT2 R166^ECL2A (Homo sapiens, UniProt Q9NPC1, R166A).
T5 construct: made in house
T5 sequence (Q9NPC1 1-358 R166A): T1 sequence (Q9NPC1 1-358 H177A) with R166A, A177H
The protocol: as §1

In another assay the target is T6, BLT2 T274^7.39A (Homo sapiens, UniProt Q9NPC1, T274A).
T6 construct: made in house
T6 sequence (Q9NPC1 1-358 T274A): T1 sequence (Q9NPC1 1-358 H177A) with A177H, T274A
The method, then: as §1

Experimental findings from article PMC7021728, “Structure of the agonist 12–HHT in its BLT2 receptor-bound state” (Scientific Reports, 2020) are described below.

Where a chain is given by its changes, count along the chain named.

Turning to `CCCCC[C@H](O)/C=C/C=C/C/C=C\CCCC(=O)O` [12–HHT, 12S–hydroxyheptadeca-5Z,8E,10E-trienoic acid], the “effect of the mutation on ligand binding” value at BLT2 H177^ECL2A (H177^ECL2 to alanine compared to wild-type, in words) is “do not display a significant impact on ligand binding”; at BLT2 P175^ECL2A (P175^ECL2 to alanine compared to wild-type, in words), “do not display a significant impact on ligand binding”; on BLT2 Q267^7.32A (Q267^7.32A compared to wild-type, in words), “no significant change in ligand binding”; on BLT2 R160^4.64A (R160^4.64A compared to wild-type, in words), “no effect”; on BLT2 R166^ECL2A (R166^ECL2 mutation compared to wild-type, in words), “do not impact receptor ligand properties”; at BLT2 T274^7.39A (T274^7.39A compared to wild-type, in words) it was “do not impact receptor ligand properties”. The EC50 (as a rule, the concentration at which the effect is half-maximal) at BLT2 H177^ECL2A (construct H177^ECL2A) is 24.3 nM; on BLT2 P175^ECL2A (construct P175^ECL2A), 38.9 nM; at BLT2 Q267^7.32A (construct Q267^7.32A) it was 33.1 nM; at BLT2 R160^4.64A (construct R160^4.64A), 20.5 nM; at BLT2 R166^ECL2A (construct R166^ECL2A), 20.7 nM; on BLT2 T274^7.39A (construct T274^7.39A) it was 27.7 nM.
